Assay results as given in ChEMBL document CHEMBL4371033, “Highly Potent and Selective Plasmin Inhibitors Based on the Sunflower Trypsin Inhibitor-1 Scaffold Attenuate Fibrinolysis in Plasma” (J Med Chem, 2019).
Residues, ends and D or L forms follow the SMILES beside them.

Experiments:
Serine protease 1 = target: T1, Serine protease 1 (Bos taurus, UniProt P00760); experiment: Inhibition of bovine cationic trypsin using Bz-FVR-pNA as substrate after 30 mins
T1 sequence (P00760 whole entry): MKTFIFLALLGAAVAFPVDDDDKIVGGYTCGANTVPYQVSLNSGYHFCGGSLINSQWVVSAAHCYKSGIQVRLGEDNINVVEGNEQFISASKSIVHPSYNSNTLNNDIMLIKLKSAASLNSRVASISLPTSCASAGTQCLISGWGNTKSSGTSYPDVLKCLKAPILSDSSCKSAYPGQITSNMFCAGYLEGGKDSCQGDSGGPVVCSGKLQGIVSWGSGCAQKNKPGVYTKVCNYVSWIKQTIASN

Plasminogen = Plasminogen (Homo sapiens, UniProt P00747); experiment: Inhibition of human plasmin using Ac-RM(O2)YR-pNA as substrate after 30 mins
Cathepsin G = target: T2, Cathepsin G (Homo sapiens, UniProt P08311); experiment: Inhibition of human cathepsin G using Suc-AAPF-MCA as substrate after 30 mins
T2 sequence (P08311 whole entry): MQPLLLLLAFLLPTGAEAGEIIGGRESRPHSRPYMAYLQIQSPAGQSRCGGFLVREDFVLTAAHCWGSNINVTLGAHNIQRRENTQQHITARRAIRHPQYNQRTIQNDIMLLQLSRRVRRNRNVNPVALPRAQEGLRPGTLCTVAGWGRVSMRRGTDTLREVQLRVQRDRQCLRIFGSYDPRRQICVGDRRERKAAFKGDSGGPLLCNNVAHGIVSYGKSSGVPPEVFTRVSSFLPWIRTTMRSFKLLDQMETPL

Coagulation factor XI [1] = target: T3, Coagulation factor XI (Homo sapiens, UniProt P03951); experiment: Inhibition of activated beta-factor 11 (unknown origin) using Bz-FVRpNA as substrate after 30 mins
Plasma kallikrein [2] = target: T4, Plasma kallikrein (Homo sapiens, UniProt P03952); experiment: Inhibition of plasma KLK (unknown origin) using Ac-NLTR-pNA as substrate after 30 mins
Prothrombin [3] = target: T5, Prothrombin (Homo sapiens, UniProt P00734); experiment: Inhibition of human thrombin using Ac-ATPR-pNA as substrate after 30 mins
[4] = target: T6, Suppressor of tumorigenicity 14 protein (Homo sapiens, UniProt Q9Y5Y6); experiment: Inhibition of matriptase (unknown origin) using Boc-QAR-MCA as substrate after 30 mins
T6 sequence (Q9Y5Y6 whole entry): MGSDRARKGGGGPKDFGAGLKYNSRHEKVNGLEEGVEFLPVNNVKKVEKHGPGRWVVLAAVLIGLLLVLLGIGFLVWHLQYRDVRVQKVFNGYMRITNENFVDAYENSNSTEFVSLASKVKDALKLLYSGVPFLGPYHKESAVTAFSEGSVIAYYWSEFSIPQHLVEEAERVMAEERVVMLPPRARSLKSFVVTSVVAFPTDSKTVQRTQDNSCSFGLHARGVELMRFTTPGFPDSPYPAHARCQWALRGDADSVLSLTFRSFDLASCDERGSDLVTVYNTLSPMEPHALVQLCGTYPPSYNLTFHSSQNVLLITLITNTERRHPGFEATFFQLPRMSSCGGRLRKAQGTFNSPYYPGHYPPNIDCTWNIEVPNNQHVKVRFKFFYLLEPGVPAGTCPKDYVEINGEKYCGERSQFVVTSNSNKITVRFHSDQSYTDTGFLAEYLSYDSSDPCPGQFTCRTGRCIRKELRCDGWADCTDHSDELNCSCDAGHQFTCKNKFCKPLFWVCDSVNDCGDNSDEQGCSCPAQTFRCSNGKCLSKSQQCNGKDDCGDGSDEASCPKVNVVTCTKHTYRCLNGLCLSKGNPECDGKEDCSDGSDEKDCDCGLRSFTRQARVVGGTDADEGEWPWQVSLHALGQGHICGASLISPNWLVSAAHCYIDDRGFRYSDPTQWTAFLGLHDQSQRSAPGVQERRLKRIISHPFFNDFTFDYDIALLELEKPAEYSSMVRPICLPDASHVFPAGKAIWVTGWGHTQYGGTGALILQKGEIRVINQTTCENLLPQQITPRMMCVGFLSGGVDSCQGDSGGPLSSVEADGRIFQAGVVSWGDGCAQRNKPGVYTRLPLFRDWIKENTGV

Coagulation factor IX = Coagulation factor IX (Homo sapiens, UniProt P00740); experiment: Inhibition of activated beta-factor 9 (unknown origin) using Boc-QGR-MCA as substrate after 30 mins relative to untreated control
Coagulation factor X = Coagulation factor X (Homo sapiens, UniProt P00742); experiment: Inhibition of activated factor 10 (unknown origin) using Ac-QRSR-pNA as substrate after 30 mins relative to untreated control
Coagulation factor XII [5] = target: T7, Coagulation factor XII (Homo sapiens, UniProt P00748); experiment: Inhibition of activated beta-factor 12 (unknown origin) using Ac-QRFR-pNA as substrate after 30 mins relative to untreated control
T7 sequence (P00748 whole entry): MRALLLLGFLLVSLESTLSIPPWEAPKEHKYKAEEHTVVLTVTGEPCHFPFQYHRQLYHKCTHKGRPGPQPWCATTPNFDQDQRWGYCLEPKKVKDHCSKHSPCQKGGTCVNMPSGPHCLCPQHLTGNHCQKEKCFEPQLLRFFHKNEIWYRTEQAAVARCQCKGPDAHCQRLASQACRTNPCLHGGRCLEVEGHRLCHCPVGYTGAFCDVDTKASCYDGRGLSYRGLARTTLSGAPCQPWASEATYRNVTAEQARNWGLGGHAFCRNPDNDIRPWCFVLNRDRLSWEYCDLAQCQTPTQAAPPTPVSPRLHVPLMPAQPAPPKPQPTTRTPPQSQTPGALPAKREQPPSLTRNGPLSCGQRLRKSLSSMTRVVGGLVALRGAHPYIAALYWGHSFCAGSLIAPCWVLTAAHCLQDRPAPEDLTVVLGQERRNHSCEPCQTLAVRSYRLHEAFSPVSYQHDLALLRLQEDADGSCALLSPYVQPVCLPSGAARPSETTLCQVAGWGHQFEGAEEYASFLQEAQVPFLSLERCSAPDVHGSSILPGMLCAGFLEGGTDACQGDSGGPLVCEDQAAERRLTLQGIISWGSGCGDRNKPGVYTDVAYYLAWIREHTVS

Prothrombin [6] = target: T5, Prothrombin; experiment: Inhibition of human thrombin using Ac-ATPR-pNA as substrate after 30 mins relative to untreated control
[7] = target: Tissue-type plasminogen activator (Homo sapiens, UniProt P00750); experiment: Inhibition of tPA (unknown origin) using Z-Pyr-Gly-Arg-MCA as substrate after 30 mins relative to untreated control
[8] = target: Urokinase-type plasminogen activator (Homo sapiens, UniProt P00749); experiment: Inhibition of uPA (unknown origin) using Z-Pyr-Gly-Arg-MCA as substrate after 30 mins relative to untreated control
Coagulation factor XI [9] = target: T3, Coagulation factor XI; experiment: Inhibition of activated beta-factor 11 (unknown origin) using Bz-FVRpNA as substrate after 30 mins relative to untreated control
Plasma kallikrein [10] = target: T4, Plasma kallikrein; experiment: Inhibition of plasma KLK (unknown origin) using Ac-NLTR-pNA as substrate after 30 mins relative to untreated control
[11] = target: T6, Suppressor of tumorigenicity 14 protein; experiment: Inhibition of matriptase (unknown origin) using Boc-QAR-MCA as substrate after 30 mins relative to untreated control
Coagulation factor XII [12] = target: T7, Coagulation factor XII; experiment: Inhibition of human beta-factor 12a using Ac-QRFR-pNA as substrate after 30 mins
Trypsin (Sus scrofa) [13] = target: Trypsin (Sus scrofa) (UniProt P00761); experiment: Inhibition of porcine trypsin assessed as dissociation rate constant using peptide-pNA as substrate
Trypsin (Sus scrofa) [14] = target: Trypsin (Sus scrofa) (UniProt P00761); experiment: Inhibition of porcine trypsin assessed as association rate constant using peptide-pNA as substrate
[15] = Inhibition of bovine trypsin pre-incubated for 60 mins before tos-GPR-AMC substrate addition; design: species or system Bos taurus
[16] = target: T6, Suppressor of tumorigenicity 14 protein; experiment: Inhibition of recombinant human matriptase catalytic domain pre-incubated for 60 mins before Boc QAR-AMC substrate addition

Sequence of Trypsin (Sus scrofa) (P00761 whole entry): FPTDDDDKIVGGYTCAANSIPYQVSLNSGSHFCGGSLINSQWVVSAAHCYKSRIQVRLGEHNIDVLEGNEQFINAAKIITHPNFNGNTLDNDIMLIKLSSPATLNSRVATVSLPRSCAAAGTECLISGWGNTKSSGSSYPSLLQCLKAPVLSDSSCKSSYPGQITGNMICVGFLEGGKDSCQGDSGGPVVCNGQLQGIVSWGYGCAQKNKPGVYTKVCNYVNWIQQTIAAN
Sequence of Plasminogen (P00747 97-580 limits assumed): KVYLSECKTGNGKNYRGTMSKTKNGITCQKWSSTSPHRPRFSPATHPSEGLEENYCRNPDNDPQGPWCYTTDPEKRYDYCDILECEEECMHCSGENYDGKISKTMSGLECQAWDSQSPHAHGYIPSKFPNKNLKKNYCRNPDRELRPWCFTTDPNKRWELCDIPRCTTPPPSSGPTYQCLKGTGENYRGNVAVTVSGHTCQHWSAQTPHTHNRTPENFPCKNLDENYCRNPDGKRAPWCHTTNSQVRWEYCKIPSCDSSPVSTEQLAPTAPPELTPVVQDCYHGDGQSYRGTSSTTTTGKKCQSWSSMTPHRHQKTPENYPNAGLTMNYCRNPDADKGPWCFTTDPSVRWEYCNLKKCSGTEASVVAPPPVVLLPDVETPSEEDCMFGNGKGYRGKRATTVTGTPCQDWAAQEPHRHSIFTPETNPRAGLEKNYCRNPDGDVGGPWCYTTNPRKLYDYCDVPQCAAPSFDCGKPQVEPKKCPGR
Sequence of Plasminogen (P00747 581-810 limits assumed): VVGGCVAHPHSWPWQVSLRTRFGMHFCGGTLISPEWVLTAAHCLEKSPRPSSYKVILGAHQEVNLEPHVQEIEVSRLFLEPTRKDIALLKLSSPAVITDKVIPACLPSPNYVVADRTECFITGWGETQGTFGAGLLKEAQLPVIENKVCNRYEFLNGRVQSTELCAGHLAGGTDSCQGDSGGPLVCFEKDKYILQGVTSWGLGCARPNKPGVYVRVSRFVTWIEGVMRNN
T3 sequence (P03951 19-387 limits assumed): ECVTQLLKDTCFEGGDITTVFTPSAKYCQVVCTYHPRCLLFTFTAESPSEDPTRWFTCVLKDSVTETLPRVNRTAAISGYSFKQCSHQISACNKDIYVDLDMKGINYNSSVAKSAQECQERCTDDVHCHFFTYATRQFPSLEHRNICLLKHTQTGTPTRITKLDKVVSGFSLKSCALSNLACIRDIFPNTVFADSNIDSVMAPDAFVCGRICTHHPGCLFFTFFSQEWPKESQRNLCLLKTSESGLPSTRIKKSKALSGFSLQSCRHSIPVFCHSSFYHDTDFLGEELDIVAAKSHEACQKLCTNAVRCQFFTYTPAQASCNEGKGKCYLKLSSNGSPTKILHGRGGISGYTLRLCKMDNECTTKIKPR
T3 sequence (P03951 388-625 limits assumed): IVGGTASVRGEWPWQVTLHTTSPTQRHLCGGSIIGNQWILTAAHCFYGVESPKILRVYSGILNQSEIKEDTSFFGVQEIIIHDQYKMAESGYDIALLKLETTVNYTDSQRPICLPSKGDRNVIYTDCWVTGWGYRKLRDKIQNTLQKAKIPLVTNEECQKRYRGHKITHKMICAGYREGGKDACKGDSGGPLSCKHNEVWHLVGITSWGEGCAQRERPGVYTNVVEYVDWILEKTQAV
Sequence of Coagulation factor IX (P00740 47-191 limits assumed): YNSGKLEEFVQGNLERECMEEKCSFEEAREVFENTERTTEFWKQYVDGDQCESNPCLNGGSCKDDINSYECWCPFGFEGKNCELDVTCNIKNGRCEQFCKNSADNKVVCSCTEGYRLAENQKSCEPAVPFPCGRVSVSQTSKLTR
Sequence of Coagulation factor IX (P00740 227-461 limits assumed): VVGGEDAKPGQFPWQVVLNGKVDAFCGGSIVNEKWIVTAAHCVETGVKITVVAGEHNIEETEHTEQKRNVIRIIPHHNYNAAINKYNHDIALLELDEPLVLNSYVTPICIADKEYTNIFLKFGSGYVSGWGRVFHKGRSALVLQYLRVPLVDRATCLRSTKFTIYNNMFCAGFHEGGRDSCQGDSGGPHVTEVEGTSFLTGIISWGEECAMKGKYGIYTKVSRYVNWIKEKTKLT
T4 sequence (P03952 20-390 limits assumed): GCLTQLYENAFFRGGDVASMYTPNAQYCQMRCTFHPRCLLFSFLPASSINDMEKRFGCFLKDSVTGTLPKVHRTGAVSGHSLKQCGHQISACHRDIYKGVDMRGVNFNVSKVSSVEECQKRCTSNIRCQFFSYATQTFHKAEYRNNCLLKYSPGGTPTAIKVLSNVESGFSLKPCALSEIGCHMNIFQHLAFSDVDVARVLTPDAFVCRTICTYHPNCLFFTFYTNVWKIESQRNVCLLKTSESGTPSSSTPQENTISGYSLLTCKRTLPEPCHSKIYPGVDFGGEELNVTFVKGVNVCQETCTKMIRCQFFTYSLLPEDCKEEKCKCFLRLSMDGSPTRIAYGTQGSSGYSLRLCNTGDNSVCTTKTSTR
T4 sequence (P03952 391-638 limits assumed): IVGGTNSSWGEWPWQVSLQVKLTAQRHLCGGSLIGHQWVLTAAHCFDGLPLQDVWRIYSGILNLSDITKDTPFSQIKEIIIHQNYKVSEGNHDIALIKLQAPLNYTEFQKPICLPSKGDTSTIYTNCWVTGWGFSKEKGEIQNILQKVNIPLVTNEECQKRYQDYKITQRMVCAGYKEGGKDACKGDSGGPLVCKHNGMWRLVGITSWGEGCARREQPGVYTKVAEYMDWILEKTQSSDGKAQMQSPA
Sequence of Tissue-type plasminogen activator (P00750 whole entry): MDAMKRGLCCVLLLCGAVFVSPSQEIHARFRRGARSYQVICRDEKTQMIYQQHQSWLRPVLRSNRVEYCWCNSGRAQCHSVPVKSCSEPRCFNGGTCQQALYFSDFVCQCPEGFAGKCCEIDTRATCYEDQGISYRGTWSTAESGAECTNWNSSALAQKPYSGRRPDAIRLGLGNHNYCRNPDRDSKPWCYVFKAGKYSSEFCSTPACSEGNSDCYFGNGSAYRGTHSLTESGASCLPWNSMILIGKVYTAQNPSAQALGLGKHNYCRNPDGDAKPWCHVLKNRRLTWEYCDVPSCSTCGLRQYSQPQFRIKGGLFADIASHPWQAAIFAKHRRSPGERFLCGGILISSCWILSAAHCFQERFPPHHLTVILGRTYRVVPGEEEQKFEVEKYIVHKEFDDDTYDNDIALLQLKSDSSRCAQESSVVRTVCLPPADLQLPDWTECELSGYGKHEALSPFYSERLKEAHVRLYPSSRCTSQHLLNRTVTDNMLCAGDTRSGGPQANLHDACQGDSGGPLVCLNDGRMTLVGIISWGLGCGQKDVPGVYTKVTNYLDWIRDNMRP
Sequence of Coagulation factor X (P00742 41-179 limits assumed): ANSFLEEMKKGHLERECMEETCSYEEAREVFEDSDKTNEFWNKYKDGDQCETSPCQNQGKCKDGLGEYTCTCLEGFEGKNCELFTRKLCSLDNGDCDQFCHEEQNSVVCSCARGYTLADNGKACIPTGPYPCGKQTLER
Sequence of Coagulation factor X (P00742 235-488 limits assumed): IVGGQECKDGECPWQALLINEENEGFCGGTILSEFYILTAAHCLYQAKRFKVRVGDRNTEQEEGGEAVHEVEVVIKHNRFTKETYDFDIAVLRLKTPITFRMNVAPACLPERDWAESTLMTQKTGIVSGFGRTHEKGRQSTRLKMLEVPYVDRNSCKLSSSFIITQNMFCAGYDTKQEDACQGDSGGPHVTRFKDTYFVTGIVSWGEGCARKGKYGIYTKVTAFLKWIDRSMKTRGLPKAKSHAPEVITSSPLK

Ki (Serine protease 1) [µM]	Ki (Plasminogen) [nM]	Ki (Cathepsin G) [µM]	Ki (Coagulation factor IX) [µM]	Ki (Coagulation factor X) [µM]	Ki (Coagulation factor XII [5]) [µM]	Ki (Prothrombin [6]) [µM]	Ki [7] [µM]	Ki [8] [µM]	Structure (SMILES)	further results
0.011	0.14	7.8	> 50	> 50	> 50	250	> 50	> 50	CC[C@H](C)[C@@H]1NC(=O)[C@@H]2CCCN2C(=O)[C@@H]2CCCN2C(=O)[C@H]([C@@H](C)CC)NC(=O)[C@H](CO)NC(=O)[C@H](CCCCN)NC(=O)[C@H](Cc2ccc(O)cc2)NC(=O)[C@@H]2CSSC[C@H](NC1=O)C(=O)N[C@@H](Cc1ccccc1)C(=O)N1CCC[C@H]1C(=O)N[C@@H](CC(=O)O)C(=O)NCC(=O)N[C@@H](CCCNC(=N)N)C(=O)N2 (HELM PEPTIDE1{C.F.P.D.G.R.C.Y.K.S.I.P.P.I}$PEPTIDE1,PEPTIDE1,1:R3-7:R3|PEPTIDE1,PEPTIDE1,1:R1-14:R2$$$V2.0)	Ki (Coagulation factor XI [1]): 13 µM; Ki (Plasma kallikrein [2]): 32 µM; Ki (Prothrombin [3]): 250 µM; Ki [4]: 480 µM
0.028	0.041	13	> 50	> 50	> 50	> 50	> 50	> 50	CC[C@H](C)[C@@H]1NC(=O)[C@@H]2CCCN2C(=O)[C@@H]2CCCN2C(=O)[C@H](CCCNC(=N)N)NC(=O)[C@H](CO)NC(=O)[C@H](CCCCN)NC(=O)[C@H](Cc2ccc(O)cc2)NC(=O)[C@@H]2CSSC[C@H](NC1=O)C(=O)N[C@@H](Cc1ccccc1)C(=O)N1CCC[C@H]1C(=O)N[C@@H](CC(=O)O)C(=O)NCC(=O)N[C@@H](CCCNC(=N)N)C(=O)N2 (HELM PEPTIDE1{C.F.P.D.G.R.C.Y.K.S.R.P.P.I}$PEPTIDE1,PEPTIDE1,1:R3-7:R3|PEPTIDE1,PEPTIDE1,1:R1-14:R2$$$V2.0)	Ki (Coagulation factor XI [9]): > 50 µM; Ki (Plasma kallikrein [10]): > 50 µM; Ki [11]: > 50 µM
–	–	–	–	–	–	–	–	–	CC[C@H](C)[C@@H]1NC(=O)[C@@H]2CCCN2C(=O)[C@@H]2CCCN2C(=O)[C@H]([C@@H](C)CC)NC(=O)[C@H](CO)NC(=O)[C@H](CCCCN)NC(=O)[C@H]([C@@H](C)O)NC(=O)[C@@H]2CSSC[C@H](NC1=O)C(=O)N[C@@H](Cc1ccccc1)C(=O)N1CCC[C@H]1C(=O)N[C@@H](CC(=O)O)C(=O)NCC(=O)N[C@@H](CCCNC(=N)N)C(=O)N2	Ki (Coagulation factor XII [12]): 130 µM; K (Trypsin (Sus scrofa) [13]): 0.5 ×10⁻⁴ /s; K (Trypsin (Sus scrofa) [14]): 0.2 ×10⁷ /M/s; Ki [15]: 0.017 nM; Ki [16]: 0.2 µM
